Assay results taken from PMC3160846 (PLoS ONE, 2011).
Values joined by “and” are separate entries in the source; they are usually repeats but may differ in a detail not shown here. Equal entries are not always repeated.

Key:
ALK = molecular target: T1, ALK (Homo sapiens, UniProt Q9UM73); test: Kinase inhibition assay, ALK; assay type: biochemical
T1 construct: His-tagged ALK (residues V1058-P1620) containing kinase domain; His; made in house; host or cells: Sf9 insect cells
Protocol: ALK – The recombinant His-tagged ALK (residues V1058-P1620) containing kinase domain was expressed in Sf9 insect cells. The kinase assay was carried out in 96-well plates with the tested compound at 30°C for 120 min.
(§1) Composition of the reaction buffers used in different kinase inhibitory assays is described in Figure S3.
25 mM HEPES pH 7.4, 10 mM MgCl2, 4 mM MnCl2, 0.5 mM Na3VO4, 2 mM DTT, 0.02% Triton X100, 0.01% BSA, 1 μM ATP, 2 μM polyGlu4:Tyr peptide, 50~100 ng recombinant ALK.

CHK2 = molecular target: T2, CHK2 (Homo sapiens, UniProt O96017); test: Kinase inhibition assay, CHK2; assay type: biochemical
T2 construct: CHK2 (residues M1-L543) containing kinase domain; His; made in house; host or cells: Sf9 insect cells
T2 sequence (O96017 whole entry, the tested form may be a part): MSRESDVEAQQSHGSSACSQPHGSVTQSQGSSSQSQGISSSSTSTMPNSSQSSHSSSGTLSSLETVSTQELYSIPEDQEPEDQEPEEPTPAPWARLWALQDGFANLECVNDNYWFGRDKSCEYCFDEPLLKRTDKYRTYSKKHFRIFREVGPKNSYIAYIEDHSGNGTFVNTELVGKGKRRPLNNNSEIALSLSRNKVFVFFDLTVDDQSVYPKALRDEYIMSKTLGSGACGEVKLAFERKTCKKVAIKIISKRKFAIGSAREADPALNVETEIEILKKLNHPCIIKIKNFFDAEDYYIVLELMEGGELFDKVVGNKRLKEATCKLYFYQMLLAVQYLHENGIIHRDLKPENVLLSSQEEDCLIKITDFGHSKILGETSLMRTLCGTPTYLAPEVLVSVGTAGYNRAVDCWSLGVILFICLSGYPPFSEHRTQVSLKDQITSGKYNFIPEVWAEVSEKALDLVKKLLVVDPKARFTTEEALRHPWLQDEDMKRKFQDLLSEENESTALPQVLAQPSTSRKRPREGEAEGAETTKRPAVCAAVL
Protocol: CHK1/2 – The recombinant His-tagged CHK1 (residues M1-T476) or CHK2 (residues M1-L543) containing kinase domain were expressed in Sf9 insect cells. The kinase assay was carried out in 96-well plates with the tested compound at 30°C for 120 min.
as §1
25 mM HEPES pH 7.4, 10mM MgCl2, 4mM MnCl2, 0.5mM Na3VO4, 2 mM DTT, 0.02% Triton X100, 0.01% BSA, 1 mM ATP, 2 mM CHK peptide ([…]), 50~500 ng recombinant CHK1 or CHK2.

cMET = molecular target: T3, cMET (Homo sapiens, UniProt P08581); test: Kinase inhibition assay, cMET; assay type: biochemical
T3 construct: GST-tagged c-Met (residues K956-S1390) containing kinase domain; GST; made in house; host or cells: Sf9 insect cells
T3 sequence (P08581 956-1390): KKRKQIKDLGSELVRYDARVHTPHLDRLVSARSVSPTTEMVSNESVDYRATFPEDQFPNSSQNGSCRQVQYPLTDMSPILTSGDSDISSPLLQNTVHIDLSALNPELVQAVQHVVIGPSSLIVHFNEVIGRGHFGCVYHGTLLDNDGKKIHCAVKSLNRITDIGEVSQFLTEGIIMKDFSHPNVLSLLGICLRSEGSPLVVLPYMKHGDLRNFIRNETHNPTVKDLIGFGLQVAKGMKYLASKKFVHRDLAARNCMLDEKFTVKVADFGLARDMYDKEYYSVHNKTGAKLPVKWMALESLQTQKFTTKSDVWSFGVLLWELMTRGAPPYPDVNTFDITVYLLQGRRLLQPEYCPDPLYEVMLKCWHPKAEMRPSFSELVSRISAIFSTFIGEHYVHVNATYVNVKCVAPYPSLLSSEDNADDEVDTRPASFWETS
Protocol: c-Met – The recombinant GST-tagged c-Met (residues K956-S1390) containing kinase domain was expressed in Sf9 insect cells. The kinase assay was carried out in 96-well plates with the tested compound at 30°C for 120 min.
as §1
25 mM HEPES pH 7.4, 10mM MgCl2, 4 mM MnCl2, 0.5mM Na3VO4, 2 mM DTT, 0.02% Triton X100, 0.01% BSA, 1 mM ATP, 2 mM polyGlu4:Tyr peptide, 75 ng recombinant Met.

HONE-1 cells = test: Western blot of Histone H3 phosphorylation and cyclin B1, HONE-1; assay type: cell-based, Human; conditions: HONE-1, 48 h
Protocol: Cells were lysed with ice-cold lysis buffer (10 mM Tris, 1 mM EDTA, 1 mM DTT, 60 mM KCl, 0.5% NP-40 and protease inhibitors). […] The resolved proteins were electrophoretically transferred to PVDF membranes (Amersham Life Science, Amersham, U.K.) for Western blot analysis. The membranes were blocked with 5% non-fat milk at room temperature for two hours, washed twice with TBST (1% Tween) and then incubated with either anti-phosphorylated Aurora-A/-B/-C kinase antibody (#2914S, Cell Signaling Technology, Danvers, MA), anti-Aurora-A and -B kinase antibody (#ab1287 and #ab2254, Abcam, Cambridge, MA), anti-phosphorylated Histone H3 antibody (#9701, Cell Signaling Technology, Danvers, MA), anti-Histone H3 antibody (#9715, Cell Signaling Technology, Danvers, MA), anti-Cyclin B1 antibody or anti-Actin antibody (#sc-245 and #sc-130065, Santa Cruz Biotechnology, Santa Cruz, CA) overnight at 4°C. Membranes were washed twice with TBST then subsequently incubated with a horseradish peroxidase-conjugated secondary antibody (Santa Cruz Biotechnology, Santa Cruz, CA) for 1 hour at room temperature. Immunoreactivity was detected by Enhanced Chemiluminescence (Amersham International, Buckingham, U.K.) and autoradiography. Experiments were repeated independently at least two times.

[1] = Pharmacokinetic study in rats; assay type: in vivo; conditions: 5 mg/kg i.v.
Protocol: Male Sprague-Dawley rats weighing 300–400 g each (8–12 weeks old) were obtained from BioLASCO, Taiwan Co., Ltd., Ilan, Taiwan. Animals were surgically prepared with a jugular-vein cannula one day prior to dosing and fasted overnight (∼18–20 h) prior to dosing. Water was available ad libitum throughout the experiment. Single 5 mg/kg dose of BPR1K653, as a DMA/PEG (20/80, v/v) solution, was separately administered to groups of 3 rats each intravenously by a bolus injection via the jugular-vein cannula. At 0 (prior to dosing), 2, 5, 15 and 30 min, and at 1, 2, 4, 6, 8 and 24 h after dosing, a blood sample (0.15 mL) was collected from each animal via the jugular-vein cannula and stored in ice (0–4°C). Plasma was separated from the blood by centrifugation (14,000 g for 15 min at 4°C in a Beckman Model Allegra™ 6R centrifuge) and stored in a freezer (−20°C). All samples were analyzed for the parent drug by LC-MS/MS. LC/MS/MS conditions: The chromatographic system consisted of an Agilent 1200 series LC system and an Agilent ZORBAX Eclipse XDB-C8 column (5 µm, 3.0×150 mm) was connected to a MDS Sciex API3000 tandem mass spectrometer, which was equipped with a Turbo V™ ESI in the positive scanning mode at 600°C. Data was acquired via the multiple reactions monitoring (MRM) system. The MS/MS ion transitions were monitored at m/z of 541.4/106.4 for BPR1K653. The collision energy of 58.0 V was used for the analyst, BPR1K653. A gradient HPLC method was employed for the separation. Mobile phase A consisted of water containing 0.1% formic acid, and mobile phase B consisted of acetonitrile. The gradient profile was shown as follows (min/%B): 0.0–1.2/5, 1.3–3.9/95, 4.0–5.0/5. The flow rate was set to be 1.5 mL/min. The auto-sampler was programmed to inject 15 µL sample aliquots in every 5 min. The retention time of BPR1K653 was 2.39 min. Plasma concentration data were analyzed with non-compartmental method.

KB cells = test: Autophagy (LC3 conversion, Western blot), KB; assay type: cell-based, Human; conditions: 48 h or 72 h, full serum
Protocol: KB cells were treated with either DMSO (negative control) or BPR1K653 (48 h or 72 h) under full serum conditions. Cells cultured drug-free under reduced serum conditions were used as a positive control. Expression of various proteins was determined by Western blotting. The level of conversion of LC3-I to LC3-II provides an indicator of autophagic activity. (TIF) Click here for additional data file.

T1 sequence (Q9UM73 1058-1620): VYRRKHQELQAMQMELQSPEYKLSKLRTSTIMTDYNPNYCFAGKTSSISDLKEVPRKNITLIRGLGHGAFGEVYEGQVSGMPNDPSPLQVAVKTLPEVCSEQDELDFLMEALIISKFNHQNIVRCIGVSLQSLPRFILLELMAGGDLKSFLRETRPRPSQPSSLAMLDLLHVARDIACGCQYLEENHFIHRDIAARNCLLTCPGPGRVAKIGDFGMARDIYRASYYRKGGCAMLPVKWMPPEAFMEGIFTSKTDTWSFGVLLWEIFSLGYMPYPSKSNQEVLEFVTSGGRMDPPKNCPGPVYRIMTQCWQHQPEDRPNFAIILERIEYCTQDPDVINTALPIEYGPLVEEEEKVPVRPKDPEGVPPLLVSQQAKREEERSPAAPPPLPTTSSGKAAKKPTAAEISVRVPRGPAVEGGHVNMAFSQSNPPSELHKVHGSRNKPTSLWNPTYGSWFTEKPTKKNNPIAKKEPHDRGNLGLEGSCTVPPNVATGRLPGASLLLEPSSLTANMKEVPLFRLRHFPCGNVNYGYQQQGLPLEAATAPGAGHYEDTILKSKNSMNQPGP

IC50 (ALK): > 10 µM | IC50 (CHK2): 2300 nM | IC50 (cMET): > 10 µM | maximum plasma concentration above the in vitro kinase inhibition IC50 of Aurora-A [1]: more than 80 fold | maximum plasma concentration above the in vitro kinase inhibition IC50 of Aurora-B [1]: > 200 fold | maximum plasma concentration ([1]; at 2 min after dosing, 5 mg/kg): 10 µM and 5463 ng/mL | AUC(0-inf) ([1]; male, Sprague-Dawley, rat, plasma, iv, read-out: Area under the curve (AUC(0-inf))): 1750 ng·h/mL | half-life ([1]; male, Sprague-Dawley, rat, plasma, iv, read-out: Plasma half life (t1/2) (converted)): 234 min | clearance ([1]; male, Sprague-Dawley, rat, plasma, iv, read-out: Total body clearance (CL)): 49.3 mL/min/kg | Vd ([1]; male, Sprague-Dawley, rat, plasma, iv, read-out: Volume of distribution at the steady state (Vss)): 10.6 ± 5.1 L/kg | concentration at 24 h ([1]; male, Sprague-Dawley, rat, plasma, iv, 5 mg/kg, read-out: estimated plasma concentration 24 h after dosing): 3.9 nM and 2.1 ng/mL
Structure (SMILES): CN(C)Cc1ccccc1NC(=O)Nc1ccc(CCNc2ncnc3oc(-c4ccccc4)c(Cl)c23)cc1 [BPR1K653]
phosphorylation of Histone H3 and expression of cyclin B1 (HONE-1 cells): decreased | induction of autophagy (KB cells): not autophagy
